# Patent US20210380548A1, “Fused [1,2,4]Thiadiazine Derivatives Which Act as KAT Inhibitors of the MYST Family” (CTxT Pty Limited, priority 2017, published 2021)
# Assays:
# MOF-KAT8 [1] = biological target: T1, MOF-KAT8 (Homo sapiens, UniProt Q9H7Z6); experiment: Acetyltransferase biochemical assay (AlphaScreen), KAT8; details: Table 4 (MOF-KAT8); 0.4 μM Acetyl coenzyme A, histone H4, 20 nM enzyme
# T1 sequence (Q9H7Z6 177-447): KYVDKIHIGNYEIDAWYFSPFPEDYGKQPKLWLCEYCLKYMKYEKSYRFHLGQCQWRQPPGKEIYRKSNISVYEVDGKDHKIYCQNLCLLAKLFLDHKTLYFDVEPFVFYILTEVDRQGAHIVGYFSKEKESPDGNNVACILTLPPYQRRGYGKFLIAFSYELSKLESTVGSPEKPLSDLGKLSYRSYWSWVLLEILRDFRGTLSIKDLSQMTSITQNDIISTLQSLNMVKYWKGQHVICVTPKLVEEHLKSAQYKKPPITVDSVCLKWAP
# HBO-KAT7 [2] = biological target: T2, HBO-KAT7 (Homo sapiens, UniProt O95251); experiment: Acetyltransferase biochemical assay (AlphaScreen), KAT7; details: Table 3 (HBO-KAT7); 0.4 μM Acetyl coenzyme A, histone H3.1, 40 nM enzyme
# T2 construct: encoding amino acid residues 325 to 611 (Uniprot 095251-1) of human KAT7; made in house; host or cells: E. coli BL21 DE3 RIL
# MOZ-KAT6A [3] = biological target: T3, MOZ-KAT6A (Homo sapiens, UniProt Q92794, A567V); experiment: Acetyltransferase biochemical assay (AlphaScreen), KAT6A; details: Table 2 (MOZ-KAT6A); 10 μM Acetyl coenzyme A, histone H3.1, 5 nM enzyme
# T3 construct: encoding amino acid residues 507 to 778 (Uniprot Q92794-1) of human KAT6A; made in house; host or cells: E. coli BL21 DE3
# TIP60-KAT5 [4] = biological target: T4, TIP60-KAT5 (Homo sapiens, UniProt Q92993); experiment: Acetyltransferase biochemical assay (AlphaScreen), KAT5; details: Table 1 (TIP60-KAT5); 0.4 μM Acetyl coenzyme A, histone H4, 10 nM enzyme
# T4 construct: encoding amino acid residues 2 to 461 (Uniprot Q92993-2) of human KAT5 isoform; made in house; host or cells: E. coli BL21 DE3
# [5] = tested on: histone H3K14 acetylation (HBO1 mediated) in U2OS cells; experiment: Histone H3 Lysine 14 Acetylation Biomarker Assay (96 well, U2OS); format: cell-based; details: Table 6, H3K14ac, 24 hours incubation, serum free medium
# Procedure: Compounds may be tested for their ability to inhibit acetylation of the histone H3K14 marker (which is HBO1 mediated) in the following assay:
# (§1) The cell line U2OS was seeded at a density of 12,000 cells per well in 96 well optical quality tissue culture plates in RPMI medium and 10% foetal bovine serum, and allowed to adhere for 24 hours under standard culture conditions (37 degree Celsius, 5% CO2). At the end of this period the cells were washed with serum free medium. Compound dilutions prepared in DMSO were added to the serum free medium, with negative control wells reserved for treatment with DMSO only and positive controls receiving a potent inhibitor compound (e.g. Example 36 in WO2016/198507) at 10 μM concentration. After incubation for 24 hours, the cells were fixed with 3.7% formaldehyde in PBS for 20 minutes at room temperature, washed with phosphate buffer saline containing 0.1% Tween 20 and blocked with Odyssey blocking buffer (LI-COR, Lincoln, Nebr.) containing 0.1% TritonX100. Anti-H3K14ac specific antibody (Cell Signalling Technologies) in Odyssey blocking buffer containing 0.1% Tween 20 was added and incubated for 14 hours at 4 degree Celsius. After washing, a secondary antibody labelled with Alexa647 dye (LifeTechnologies) and Hoechst 33342 (1 μg/mL, SigmaAldrich) were added for 1 hour incubation. Plates were washed and read on a PerkinElmer Phenix high content imaging platform. Using a Columbus image analysis pipeline, individual nuclei were located by Hoechst 33342 stain and the acetylation level was calculated from the Alexa647-related intensity in the same area. The resulting mean intensity per cell was directly converted to percent inhibition relative to controls on the same plate and the data fitted against a four-parameter logistic model to determine the 50% inhibitory concentration (IC50).
# [6] = tested on: histone H2A.Z Lysine 7 acetylation (TIP60 mediated) in U2OS cells; experiment: H2A.Z Lysine 7 Acetylation Biomarker Assay (96 well, U2OS); format: cell-based; details: Table 7, H2A.Z K7ac, 24 hours incubation, serum free medium
# Procedure: To discover a global TIP60/KAT5 cellular biomarker useful for monitoring PD responses of TIP60 inhibition in vitro and in vivo, various histone modifications were assessed for TIP60 dependence through genetic (TIP60 siRNA and CRISPR/Cas9) or TIP60 pharmacological inhibition. This analysis clearly identified acetylation of the histone variant H2A.Z at Lysine 7 (H2A.ZK7ac) as a global histone mark which is TIP60-dependent in both human and mouse cells. To a lesser extent, TIP60 also acetylated lysine 4 and 11 of H2A.Z.
# Compounds may be tested for their ability to inhibit the histone H2A.Z Lysine 7 acetylation biomarker (which is TIP60 mediated) in the following assay:
# as §1, with “of 9,000” for “of 12,000”, “Example 146)” for “Example 36 in WO2016/198507)”, “at 20” for “at 10”, “TritonX100. Anti-H2A.Z K7ac” for “TritonX100. Anti-H3K14ac”, “antibody (Abcam)” for “antibody (Cell Signalling Technologies)”, “33342 (10 μM,” for “33342 (1 μg/mL,”
# TIP60-KAT5 [7] = biological target: T4, TIP60-KAT5; experiment: Revised Acetyltransferase Biochemical Assay, KAT5; details: 10 nM KAT5, 1 μM AcCoA, 100 nM histone H4, 90 min
# HBO-KAT7 [8] = biological target: T2, HBO-KAT7; experiment: Revised Acetyltransferase Biochemical Assay, KAT7; details: Table 9 (HBO-KAT7), 1 μM Acetyl coenzyme A
# MOZ-KAT6A [9] = biological target: T3, MOZ-KAT6A; experiment: Revised Acetyltransferase Biochemical Assay, KAT6A; details: Table 8 (MOZ-KAT6A), 1 μM Acetyl coenzyme A
# MOF-KAT8 [10] = biological target: T1, MOF-KAT8; experiment: Revised Acetyltransferase Biochemical Assay, KAT8
# QKF-KAT6B = biological target: T5, QKF-KAT6B (Homo sapiens, UniProt Q8WYB5); experiment: Revised Acetyltransferase Biochemical Assay, KAT6B; details: 8 nM KAT6B, 1 μM AcCoA, 100 nM histone H3.1, 90 min
# T5 construct: purchased SignalChem K315-381BG
# Description: KAT6B was obtained from SignalChem, catalog ID: K315-381BG
# [11] = tested on: histone H3K23 acetylation (KATE mediated) in U2OS cells; experiment: Histone H3 Lysine 23 Acetylation Biomarker Assay (U2OS); format: cell-based; details: Homo sapiens, 96 well, 24 hours incubation
# Method in brief: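 U2OS cells were treated with compound for 24 h, then fixed and immunostained for H3K23ac with Hoechst nuclear counterstain. Per-nucleus Alexa647 intensity was quantified by high-content imaging and converted to % inhibition against DMSO and 10 μM reference-inhibitor controls. IC50 was derived from a four-parameter logistic fit.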
# T3 sequence (Q92794 507-778 A567V limits assumed): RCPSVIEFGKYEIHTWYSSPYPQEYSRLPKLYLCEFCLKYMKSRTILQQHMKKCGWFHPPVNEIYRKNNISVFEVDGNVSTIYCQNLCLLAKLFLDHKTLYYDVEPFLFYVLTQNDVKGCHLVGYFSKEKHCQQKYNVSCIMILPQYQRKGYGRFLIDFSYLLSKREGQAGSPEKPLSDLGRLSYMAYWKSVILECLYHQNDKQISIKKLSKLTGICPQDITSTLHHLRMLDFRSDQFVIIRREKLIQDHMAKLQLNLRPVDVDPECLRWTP
# T4 sequence (Q92993 2-461 isoform Q92993-2): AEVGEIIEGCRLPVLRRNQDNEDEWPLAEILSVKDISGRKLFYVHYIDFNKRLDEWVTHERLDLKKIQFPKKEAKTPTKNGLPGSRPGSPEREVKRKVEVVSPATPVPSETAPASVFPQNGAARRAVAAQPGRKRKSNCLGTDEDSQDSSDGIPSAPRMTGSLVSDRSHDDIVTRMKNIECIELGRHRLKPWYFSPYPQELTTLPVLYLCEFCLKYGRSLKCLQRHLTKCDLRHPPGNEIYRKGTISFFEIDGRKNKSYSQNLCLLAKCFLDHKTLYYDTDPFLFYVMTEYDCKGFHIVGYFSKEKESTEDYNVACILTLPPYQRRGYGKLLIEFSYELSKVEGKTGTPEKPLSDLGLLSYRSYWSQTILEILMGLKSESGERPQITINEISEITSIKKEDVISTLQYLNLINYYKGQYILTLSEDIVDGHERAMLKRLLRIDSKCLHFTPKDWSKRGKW
# T2 sequence (O95251 with tags, fused parts or gaps): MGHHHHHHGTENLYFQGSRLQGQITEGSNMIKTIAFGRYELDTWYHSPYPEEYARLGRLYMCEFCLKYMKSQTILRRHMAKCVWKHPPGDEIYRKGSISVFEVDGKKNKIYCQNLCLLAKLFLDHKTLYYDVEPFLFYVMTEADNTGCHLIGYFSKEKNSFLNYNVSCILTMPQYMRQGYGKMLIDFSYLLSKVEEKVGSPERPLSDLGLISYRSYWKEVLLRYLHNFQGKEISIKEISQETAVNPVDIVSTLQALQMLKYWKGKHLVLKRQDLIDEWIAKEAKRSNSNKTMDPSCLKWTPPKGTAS
# T5 sequence (Q8WYB5 whole entry): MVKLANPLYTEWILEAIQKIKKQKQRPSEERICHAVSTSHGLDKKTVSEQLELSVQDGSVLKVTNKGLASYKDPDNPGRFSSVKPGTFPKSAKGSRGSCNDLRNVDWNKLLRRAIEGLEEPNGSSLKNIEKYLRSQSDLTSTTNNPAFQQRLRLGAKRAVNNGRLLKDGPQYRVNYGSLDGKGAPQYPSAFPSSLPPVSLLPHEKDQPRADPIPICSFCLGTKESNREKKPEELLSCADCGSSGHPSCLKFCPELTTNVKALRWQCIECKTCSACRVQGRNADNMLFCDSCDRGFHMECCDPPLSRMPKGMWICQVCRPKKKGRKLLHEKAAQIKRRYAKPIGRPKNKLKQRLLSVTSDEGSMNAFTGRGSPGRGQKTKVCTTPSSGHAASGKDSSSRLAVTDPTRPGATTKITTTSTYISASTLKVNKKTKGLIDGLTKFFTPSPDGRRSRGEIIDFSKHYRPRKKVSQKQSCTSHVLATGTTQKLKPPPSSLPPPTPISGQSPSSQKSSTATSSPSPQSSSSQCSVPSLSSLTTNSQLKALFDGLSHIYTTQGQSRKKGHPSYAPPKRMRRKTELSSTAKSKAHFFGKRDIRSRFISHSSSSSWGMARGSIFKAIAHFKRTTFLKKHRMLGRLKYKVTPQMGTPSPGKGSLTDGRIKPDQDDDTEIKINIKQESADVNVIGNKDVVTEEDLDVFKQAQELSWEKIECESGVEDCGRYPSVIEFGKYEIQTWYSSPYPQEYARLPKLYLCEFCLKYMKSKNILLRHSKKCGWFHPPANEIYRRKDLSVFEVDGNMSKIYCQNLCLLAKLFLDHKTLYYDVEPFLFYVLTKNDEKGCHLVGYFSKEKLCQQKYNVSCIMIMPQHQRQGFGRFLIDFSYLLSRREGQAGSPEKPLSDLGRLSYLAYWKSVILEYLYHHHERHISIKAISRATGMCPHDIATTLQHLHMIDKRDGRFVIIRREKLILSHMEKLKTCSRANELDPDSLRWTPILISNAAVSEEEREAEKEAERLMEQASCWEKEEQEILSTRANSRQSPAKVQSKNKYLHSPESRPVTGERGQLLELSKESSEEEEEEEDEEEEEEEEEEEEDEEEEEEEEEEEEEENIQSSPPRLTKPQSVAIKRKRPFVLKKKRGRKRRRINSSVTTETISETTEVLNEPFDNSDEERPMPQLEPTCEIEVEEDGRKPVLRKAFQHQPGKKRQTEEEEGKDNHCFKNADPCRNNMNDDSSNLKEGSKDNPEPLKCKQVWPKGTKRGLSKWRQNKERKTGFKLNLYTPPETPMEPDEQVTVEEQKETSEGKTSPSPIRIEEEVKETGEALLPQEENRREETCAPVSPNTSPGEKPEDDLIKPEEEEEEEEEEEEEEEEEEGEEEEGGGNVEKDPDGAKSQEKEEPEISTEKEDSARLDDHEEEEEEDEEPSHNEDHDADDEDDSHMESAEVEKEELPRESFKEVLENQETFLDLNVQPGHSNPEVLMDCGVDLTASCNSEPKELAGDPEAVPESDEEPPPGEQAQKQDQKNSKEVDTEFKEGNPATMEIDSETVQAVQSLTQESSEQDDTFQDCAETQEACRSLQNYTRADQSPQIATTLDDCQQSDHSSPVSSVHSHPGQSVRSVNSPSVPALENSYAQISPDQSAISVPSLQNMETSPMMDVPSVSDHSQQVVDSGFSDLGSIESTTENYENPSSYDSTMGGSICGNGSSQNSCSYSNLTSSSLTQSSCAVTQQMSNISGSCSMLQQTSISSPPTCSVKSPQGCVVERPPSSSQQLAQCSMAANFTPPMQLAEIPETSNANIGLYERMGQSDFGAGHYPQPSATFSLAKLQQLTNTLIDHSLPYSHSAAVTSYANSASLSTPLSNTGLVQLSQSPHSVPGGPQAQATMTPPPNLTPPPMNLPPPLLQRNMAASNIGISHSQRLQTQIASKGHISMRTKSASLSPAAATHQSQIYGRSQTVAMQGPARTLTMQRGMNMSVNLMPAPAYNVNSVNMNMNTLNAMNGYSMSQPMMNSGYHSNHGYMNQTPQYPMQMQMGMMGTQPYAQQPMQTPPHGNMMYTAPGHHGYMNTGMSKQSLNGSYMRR
Structure (SMILES),IC50 (MOF-KAT8 [1]) [µM],IC50 (HBO-KAT7 [2]) [nM],IC50 (MOZ-KAT6A [3]) [nM],IC50 (TIP60-KAT5 [4]) [nM],IC50 [5] [µM],IC50 ([6]; Homo sapiens) [µM],IC50 [6] [µM],IC50 (TIP60-KAT5 [7]) [nM],IC50 (HBO-KAT7 [8]) [nM],IC50 (MOZ-KAT6A [9]) [nM],"IC50 (MOF-KAT8 [10]; read-out: IC50 (MOF-KAT8), Revised acetyltransferase biochemical assay, 20 nM KAT8, 1 μM AcCoA, 100 nM histone H4, 90 min) [µM]","IC50 ([5]; Homo sapiens, 24 h) [µM]",IC50 (MOF-KAT8 [10]) [µM],IC50 (QKF-KAT6B) [nM],IC50 [11] [µM]
"[C-]#[N+]c1ccc2c(c1)S(=O)(=O)NC(C(=O)NCC(c1ccccc1)c1ncco1)=N2 (single isomer, unassigned) [Example 142]",56.7,6570,21.1,4270,17.5,–,–,–,–,–,–,–,–,–,–
"[C-]#[N+]c1ccc2c(c1)S(=O)(=O)NC(C(=O)NCC(c1ccccc1)c1ncco1)=N2 (single isomer, unassigned) [Example 143]",30,1750,346,13800,14.6,–,–,–,–,–,–,–,–,–,–
"O=C(NCC(c1ccccc1)c1ncco1)C1=Nc2ccc(O)cc2S(=O)(=O)N1 (stereo not shown) [Example 8, 7-Hydroxy-N-(2-(oxazol-2-yl)-2-phenylethyl)-2H-benzo[e][1,2,4]thiadiazine-3-carboxamide 1,1-dioxide]",–,1200,–,4400,–,–,–,2010,134,11,–,9.68,10.5,210,5.87
"COC(=O)c1ccccc1CCNC(=O)C1=Nc2ccc(I)cc2S(=O)(=O)N1 [Example 12, Methyl 2-(2-(7-iodo-1,1-dioxido-2H-benzo[e][1,2,4]thiadiazine-3-carboxamido)ethyl)benzoate]",–,5870,–,2620,–,26.8,–,–,–,–,–,–,–,–,–
"O=C(NCCc1ccccc1-c1ncco1)C1=Nc2ccc(I)cc2S(=O)(=O)N1 [Example 13, 7-Iodo-N-(2-(oxazol-2-yl)phenethyl)-2H-benzo[e][1,2,4]thiadiazine-3-carboxamide 1,1-dioxide]",–,981,229,727,–,5.78,–,111,128,10,–,–,36.4,–,–
"O=C(NCC(c1ccccc1)c1ncco1)C1=Nc2ccc(F)cc2S(=O)(=O)N1 (stereo not shown) [Example 36, 7-fluoro-N-(2-(oxazol-2-yl)-2-phenylethyl)-2H-benzo[e][1,2,4]thiadiazine-3-carboxamide 1,1-dioxide]",–,538,661,19600,–,–,–,5470,3380,74,–,9.98,–,724,0.263
O=C(NCCc1ccccc1)C1=Nc2ccc(I)cc2S(=O)(=O)N1 [Example 93],–,9590,2200,9200,–,–,–,2000,1790,98,–,30,> 125,1780,> 10
COc1cccc(CCNC(=O)C2=Nc3ccc(I)cc3S(=O)(=O)N2)c1 [Example 101],–,> 125000,10200,> 125000,–,30,–,–,–,–,–,30,–,–,–

# Other lines, results leading:
IC50 (MOF-KAT8 [1]) [µM],IC50 (HBO-KAT7 [2]) [nM],IC50 (MOZ-KAT6A [3]) [nM],IC50 (TIP60-KAT5 [4]) [nM],IC50 [5] [µM],IC50 ([6]; Homo sapiens) [µM],IC50 [6] [µM],IC50 (TIP60-KAT5 [7]) [nM],IC50 (HBO-KAT7 [8]) [nM],IC50 (MOZ-KAT6A [9]) [nM],"IC50 (MOF-KAT8 [10]; read-out: IC50 (MOF-KAT8), Revised acetyltransferase biochemical assay, 20 nM KAT8, 1 μM AcCoA, 100 nM histone H4, 90 min) [µM]","IC50 ([5]; Homo sapiens, 24 h) [µM]",IC50 (MOF-KAT8 [10]) [µM],IC50 (QKF-KAT6B) [nM],IC50 [11] [µM],Structure (SMILES)
100,913,107,3080,2.45,10,–,–,–,–,–,–,–,–,–,"O=C(NCC(c1ccccc1)c1ncco1)C1=Nc2ccccc2S(=O)(=O)N1 (single isomer, unassigned) [Example 137]"
8.07,234,–,95.2,0.145,–,1.46,–,–,–,–,–,–,–,–,"O=C(NCC(c1ccccc1)c1ncco1)C1=Nc2ccc(Br)cc2S(=O)(=O)N1 (single isomer, unassigned) [Example 138]"
19.1,61.5,464,1300,0.263,–,5.05,707,184,100,75.8,–,–,–,–,"O=C(NCC(c1ccccc1)c1ncco1)C1=Nc2ccc(Br)cc2S(=O)(=O)N1 (single isomer, unassigned) [Example 139]"
33.3,83.6,256,778,–,–,–,426,62,17,–,0.765,77,–,–,O=C(NCC(c1ccccc1)n1cccn1)C1=Nc2ccc(Br)cc2S(=O)(=O)N1 (stereo not shown) [Example 84]
21.8,675,783,367,–,–,–,–,–,–,–,1.39,–,–,–,O=C(NCCc1ccccc1OC(F)(F)F)C1=Nc2ccc(I)cc2S(=O)(=O)N1 [Example 92]
31.2,229,476,423,–,–,–,–,–,–,–,1.06,–,–,–,O=C(NCCc1ccccc1OC(F)F)C1=Nc2ccc(Br)cc2S(=O)(=O)N1 [Example 115]
–,> 125000,–,> 125000,–,10,–,–,–,–,–,–,–,–,–,O=C(NCC(O)c1cccc(OCc2ccccc2)c1)C1=Nc2ccc(I)cc2S(=O)(=O)N1 (stereo not shown) [Example 122]
